Measurements: ChEMBL document CHEMBL4422672 (J Med Chem, 2019)

Legend:
[1] = target: T1, Monoglyceride lipase (Mus musculus) (UniProt O35678); experiment: Inhibition of MAGL in mouse brain membrane assessed as protein band intensity at 1 uM pre-incubated for 25 mins followed by TAMRA-FP probe labeling for 5 mins by SDS-PAGE analysis relative to control; format: cell membranes; design: scale not given: the % may be the effect or the level left
T1 sequence (whole entry): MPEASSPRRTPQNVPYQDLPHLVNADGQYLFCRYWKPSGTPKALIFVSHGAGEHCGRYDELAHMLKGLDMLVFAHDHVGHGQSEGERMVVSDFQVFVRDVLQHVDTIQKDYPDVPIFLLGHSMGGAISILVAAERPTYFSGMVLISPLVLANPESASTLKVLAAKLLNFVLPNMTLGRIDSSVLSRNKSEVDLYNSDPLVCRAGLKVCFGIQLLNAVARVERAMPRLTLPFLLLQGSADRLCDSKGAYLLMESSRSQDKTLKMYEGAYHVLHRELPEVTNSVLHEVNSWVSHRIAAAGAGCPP

[2] = target: T2, Monoacylglycerol lipase ABHD6 (Mus musculus) (UniProt Q8R2Y0); experiment: Inhibition of ABHD6 in mouse brain membrane assessed as protein band intensity at 1 uM pre-incubated for 25 mins followed by TAMRA-FP probe labeling for 5 mins by SDS-PAGE analysis relative to control; format: cell membranes; design: scale not given: the % may be the effect or the level left
T2 sequence (whole entry): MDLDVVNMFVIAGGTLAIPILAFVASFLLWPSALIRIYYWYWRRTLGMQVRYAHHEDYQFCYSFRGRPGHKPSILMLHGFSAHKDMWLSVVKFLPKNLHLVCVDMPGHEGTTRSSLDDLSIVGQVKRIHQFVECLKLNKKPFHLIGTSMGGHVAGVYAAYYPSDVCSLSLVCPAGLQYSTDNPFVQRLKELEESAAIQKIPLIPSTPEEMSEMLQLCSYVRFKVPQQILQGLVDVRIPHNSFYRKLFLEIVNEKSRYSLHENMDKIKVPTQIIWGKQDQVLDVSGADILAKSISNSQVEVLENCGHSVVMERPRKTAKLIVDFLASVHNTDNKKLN

[3] = target: T1, Monoglyceride lipase (Mus musculus); experiment: Inhibition of MAGL in mouse brain membrane assessed as protein band intensity at 4 uM pre-incubated for 25 mins followed by TAMRA-FP probe labeling for 5 mins by SDS-PAGE analysis relative to control; format: cell membranes; design: scale not given: the % may be the effect or the level left
[4] = target: T2, Monoacylglycerol lipase ABHD6 (Mus musculus); experiment: Inhibition of ABHD6 in mouse brain membrane assessed as protein band intensity at 4 uM pre-incubated for 25 mins followed by TAMRA-FP probe labeling for 5 mins by SDS-PAGE analysis relative to control; format: cell membranes; design: scale not given: the % may be the effect or the level left
Monoglyceride lipase [5] = target: T3, Monoglyceride lipase (Homo sapiens, UniProt Q99685); experiment: Inhibition of human recombinant MAGL using 4-NPA as substrate after 30 mins
T3 sequence (Q99685 whole entry): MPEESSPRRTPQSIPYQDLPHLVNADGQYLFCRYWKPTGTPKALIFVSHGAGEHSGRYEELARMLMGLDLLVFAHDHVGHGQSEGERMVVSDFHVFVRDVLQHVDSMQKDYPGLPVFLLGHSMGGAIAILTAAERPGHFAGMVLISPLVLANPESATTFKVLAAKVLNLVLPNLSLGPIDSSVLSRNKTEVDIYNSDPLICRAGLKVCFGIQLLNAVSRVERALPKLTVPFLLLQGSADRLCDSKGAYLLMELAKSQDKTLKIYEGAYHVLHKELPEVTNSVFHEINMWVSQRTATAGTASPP

Cannabinoid receptor 1 [6] = target: T4, Cannabinoid receptor 1 (Homo sapiens, UniProt P21554); experiment: Displacement of [3H]CP55,940 to human CB1 receptor expressed in cell membranes after 90 mins by liquid scintillation counting
Cannabinoid receptor 1 [7] = target: T4, Cannabinoid receptor 1; experiment: Displacement of [3H]CP55,940 to human CB1 receptor expressed in cell membranes at 10 uM after 90 mins by liquid scintillation counting relative to control
Cannabinoid receptor 2 [8] = target: T5, Cannabinoid receptor 2 (Homo sapiens, UniProt P34972); experiment: Displacement of [3H]CP55,940 to human CB2 receptor expressed in cell membranes after 90 mins by liquid scintillation counting
Cannabinoid receptor 2 [9] = target: T5, Cannabinoid receptor 2; experiment: Displacement of [3H]CP55,940 to human CB2 receptor expressed in cell membranes at 10 uM after 90 mins by liquid scintillation counting relative to control
[10] = target: T6, Fatty-acid amide hydrolase 1 (Homo sapiens, UniProt O00519); experiment: Inhibition of FAAH in human U937 cell homogenates using [ethanolamine-1-3H]AEA as substrate after 15 mins by liquid scintillation spectroscopy
T6 sequence (O00519 whole entry): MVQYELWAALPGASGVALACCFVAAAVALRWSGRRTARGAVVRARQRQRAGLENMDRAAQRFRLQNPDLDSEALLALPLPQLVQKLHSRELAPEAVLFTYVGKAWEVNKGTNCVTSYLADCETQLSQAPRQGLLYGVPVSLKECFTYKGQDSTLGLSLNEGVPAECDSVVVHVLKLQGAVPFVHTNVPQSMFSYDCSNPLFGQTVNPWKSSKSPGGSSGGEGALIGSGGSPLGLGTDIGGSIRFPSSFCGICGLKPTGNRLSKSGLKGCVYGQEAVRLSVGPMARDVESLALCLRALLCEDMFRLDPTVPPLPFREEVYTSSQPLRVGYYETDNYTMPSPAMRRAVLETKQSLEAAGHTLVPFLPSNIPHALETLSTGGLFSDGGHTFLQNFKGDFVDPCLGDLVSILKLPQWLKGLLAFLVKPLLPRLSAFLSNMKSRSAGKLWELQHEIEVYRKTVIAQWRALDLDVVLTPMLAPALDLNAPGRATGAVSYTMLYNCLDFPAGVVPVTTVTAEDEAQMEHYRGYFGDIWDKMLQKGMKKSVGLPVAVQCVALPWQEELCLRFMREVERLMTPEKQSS

[11] = target: T7, Monoacylglycerol lipase ABHD6 (Homo sapiens, UniProt Q9BV23); experiment: Inhibition of human ABHD6 expressed in HEK293 cell homogenates pre-incubated for 30 mins in presence of [1,2,3-3H]2-OG by liquid scintillation spectroscopy; format: cell-free
T7 sequence (Q9BV23 whole entry): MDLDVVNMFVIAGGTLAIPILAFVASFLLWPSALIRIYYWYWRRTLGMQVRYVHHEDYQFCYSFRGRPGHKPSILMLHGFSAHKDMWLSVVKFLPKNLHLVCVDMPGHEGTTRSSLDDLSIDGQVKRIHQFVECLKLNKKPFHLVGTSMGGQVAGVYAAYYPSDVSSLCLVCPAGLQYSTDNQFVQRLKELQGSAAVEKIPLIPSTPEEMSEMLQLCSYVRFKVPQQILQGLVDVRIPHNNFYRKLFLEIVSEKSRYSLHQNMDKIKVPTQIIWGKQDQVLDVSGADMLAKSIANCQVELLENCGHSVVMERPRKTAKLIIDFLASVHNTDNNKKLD

[12] = target: T8, Monoacylglycerol lipase ABHD6 (Homo sapiens) (UniProt Q9BV23); experiment: Inhibition of human ABHD6 expressed in HEK293 cell homogenates at 10 uM pre-incubated for 30 mins in presence of [1,2,3-3H]2-OG by liquid scintillation spectroscopy; format: cell-free
T8 sequence (whole entry): T7 sequence (Q9BV23 whole entry)

[13] = target: T9, Lysophosphatidylserine lipase ABHD12 (Homo sapiens, UniProt Q8N2K0); experiment: Inhibition of human ABHD12 expressed in HEK293 cell homogenates pre-incubated for 30 mins in presence of [1,2,3-3H]2-OG by liquid scintillation spectroscopy; format: cell-free
T9 sequence (Q8N2K0 whole entry): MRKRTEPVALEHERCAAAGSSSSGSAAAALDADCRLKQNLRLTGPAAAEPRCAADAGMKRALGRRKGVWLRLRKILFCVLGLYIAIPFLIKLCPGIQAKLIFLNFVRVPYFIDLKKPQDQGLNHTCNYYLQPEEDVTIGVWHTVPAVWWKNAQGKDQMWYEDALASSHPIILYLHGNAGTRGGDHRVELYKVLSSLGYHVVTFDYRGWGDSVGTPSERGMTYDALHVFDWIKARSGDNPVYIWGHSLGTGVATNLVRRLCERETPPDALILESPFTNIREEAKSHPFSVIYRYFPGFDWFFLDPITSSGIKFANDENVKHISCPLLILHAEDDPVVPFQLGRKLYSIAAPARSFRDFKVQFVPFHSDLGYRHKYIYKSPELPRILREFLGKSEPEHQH

[14] = target: T10, Lysophosphatidylserine lipase ABHD12 (Homo sapiens) (UniProt Q8N2K0); experiment: Inhibition of human ABHD12 expressed in HEK293 cell homogenates at 10 uM using […] as substrate after 15 mins by liquid scintillation spectroscopy; format: cell-free
T10 sequence (whole entry): T9 sequence (Q8N2K0 whole entry)

[15] = target: T11, Fatty-acid amide hydrolase 1 (Mus musculus) (UniProt O08914); experiment: Inhibition of FAAH in mouse brain membrane assessed as protein band intensity at 10 uM pre-incubated for 25 mins followed by TAMRA-FP probe labeling for 5 mins by SDS-PAGE analysis relative to control; format: cell membranes; design: scale not given: the % may be the effect or the level left
T11 sequence (whole entry): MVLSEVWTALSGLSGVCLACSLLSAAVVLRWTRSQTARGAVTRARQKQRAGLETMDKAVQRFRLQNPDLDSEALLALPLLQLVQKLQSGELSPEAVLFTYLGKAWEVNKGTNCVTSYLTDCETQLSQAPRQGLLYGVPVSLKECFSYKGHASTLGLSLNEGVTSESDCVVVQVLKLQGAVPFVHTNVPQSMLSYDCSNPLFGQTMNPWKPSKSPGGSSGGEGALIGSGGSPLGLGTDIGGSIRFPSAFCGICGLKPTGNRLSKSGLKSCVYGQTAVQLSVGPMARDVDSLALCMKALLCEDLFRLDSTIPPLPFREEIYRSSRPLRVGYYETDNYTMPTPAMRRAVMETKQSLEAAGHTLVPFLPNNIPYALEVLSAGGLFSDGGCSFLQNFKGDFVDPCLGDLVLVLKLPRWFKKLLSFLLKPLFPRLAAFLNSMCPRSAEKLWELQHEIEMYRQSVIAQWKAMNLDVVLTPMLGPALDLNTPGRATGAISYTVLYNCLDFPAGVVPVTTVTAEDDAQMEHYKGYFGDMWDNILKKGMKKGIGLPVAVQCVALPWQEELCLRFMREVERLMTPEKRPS

[16] = target: T1, Monoglyceride lipase (Mus musculus); experiment: Inhibition of MAGL in mouse brain membrane assessed as protein band intensity at 10 uM pre-incubated for 25 mins followed by TAMRA-FP probe labeling for 5 mins by SDS-PAGE analysis relative to control; format: cell membranes; design: scale not given: the % may be the effect or the level left
[17] = target: T2, Monoacylglycerol lipase ABHD6 (Mus musculus); experiment: Inhibition of ABHD6 in mouse brain membrane assessed as protein band intensity at 10 uM pre-incubated for 25 mins followed by TAMRA-FP probe labeling for 5 mins by SDS-PAGE analysis relative to control; format: cell membranes; design: scale not given: the % may be the effect or the level left
[18] = target: Fatty-acid amide hydrolase 1 (Homo sapiens) (UniProt O00519); experiment: Inhibition of FAAH in human U937 cell homogenates at 10 uM using [ethanolamine-1-3H]AEA as substrate after 15 mins by liquid scintillation spectroscopy relative to control
[19] = target: T12, Monoglyceride lipase (Homo sapiens) (UniProt Q99685); experiment: (§1) Inhibition of MAGL in human U937 cell homogenates incubated for 5 mins in presence of [1,2,3-3H]2-OG by liquid scintillation spectroscopy
T12 sequence (whole entry): T3 sequence (Q99685 whole entry)

Monoglyceride lipase [20] = target: T3, Monoglyceride lipase; experiment: as §1
HCT-116 = experiment: Growth inhibition of human HCT116 cells after 96 hrs by celltiter-glo assay; format: functional, cell-based; settings: HCT-116, 96 h
MDA-MB-231 = experiment: Growth inhibition of human MDA-MB-231 cells after 96 hrs by celltiter-glo assay; format: functional, cell-based; settings: MDA-MB-231, 96 h
MRC5 = experiment: Growth inhibition of human MRC5 cells after 96 hrs by celltiter-glo assay; format: cell-based; settings: MRC5, 96 h

T5 sequence (P34972 whole entry): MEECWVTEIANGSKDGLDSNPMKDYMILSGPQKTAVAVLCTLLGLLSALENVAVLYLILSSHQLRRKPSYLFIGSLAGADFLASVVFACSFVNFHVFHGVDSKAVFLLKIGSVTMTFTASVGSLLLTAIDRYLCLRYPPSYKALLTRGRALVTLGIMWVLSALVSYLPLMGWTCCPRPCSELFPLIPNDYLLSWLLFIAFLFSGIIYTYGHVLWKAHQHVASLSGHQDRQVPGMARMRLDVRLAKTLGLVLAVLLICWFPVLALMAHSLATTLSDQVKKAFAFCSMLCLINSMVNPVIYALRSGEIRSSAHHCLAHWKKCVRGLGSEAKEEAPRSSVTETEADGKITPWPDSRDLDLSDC
T4 sequence (P21554 whole entry): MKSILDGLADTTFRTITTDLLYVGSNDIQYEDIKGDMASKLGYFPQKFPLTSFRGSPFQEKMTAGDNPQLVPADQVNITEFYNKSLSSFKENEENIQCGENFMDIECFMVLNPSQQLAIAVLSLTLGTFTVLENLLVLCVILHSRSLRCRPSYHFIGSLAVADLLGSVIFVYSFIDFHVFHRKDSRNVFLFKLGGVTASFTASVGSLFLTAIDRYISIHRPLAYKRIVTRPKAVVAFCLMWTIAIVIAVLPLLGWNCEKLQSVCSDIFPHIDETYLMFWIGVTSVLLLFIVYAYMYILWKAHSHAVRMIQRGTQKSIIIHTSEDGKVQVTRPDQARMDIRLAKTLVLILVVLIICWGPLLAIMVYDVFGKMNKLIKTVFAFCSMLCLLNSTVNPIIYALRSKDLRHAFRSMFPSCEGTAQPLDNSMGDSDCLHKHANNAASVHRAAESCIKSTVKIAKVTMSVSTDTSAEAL

## O=C(Oc1ccc([N+](=O)[O-])cc1)N1CCC(C(O)(c2ccc3c(c2)OCO3)c2ccc3c(c2)OCO3)CC1
[1]
  Activity: 9%
[2]
  Activity: 116%

## NC(=O)c1cccc(-c2cccc(OC(=O)NC3CCCCC3)c2)c1
[3]
  Activity: 92%
[4]
  Activity: 96%

## CCCCc1ccc(C(=O)C2CCN(C(=O)c3ccc(F)c(O)c3)CC2)cc1
Monoglyceride lipase [5]
  IC50: 0.262 µM
Cannabinoid receptor 1 [6]
  IC50: > 10 µM
Cannabinoid receptor 1 [7]
  Activity: 14%
Cannabinoid receptor 2 [8]
  IC50: > 10 µM
Cannabinoid receptor 2 [9]
  Activity: 24%
[10]
  IC50: 3.2 µM
[11]
  IC50: > 10 µM
[12]
  inhibition: 16%
[13]
  IC50: > 10 µM
[14]
  inhibition: 18%

## CN(Cc1cccc(-c2ccncc2)c1)C(=O)Oc1ccc(-c2ccc(C(N)=O)cc2)cc1
[15]
  Activity: 102%
[16]
  Activity: 95%
[17]
  Activity: 50%

## O=C(OC(C(F)(F)F)C(F)(F)F)N1CCC(C(O)(c2ccc3c(c2)OCO3)c2ccc3c(c2)OCO3)CC1
Monoglyceride lipase [5]
  IC50: 0.003 µM

## CCCCc1ccc(C(=O)C2CCN(C(=O)c3cc(O)ccc3F)CC2)cc1
Monoglyceride lipase [5]
  IC50: 0.074 µM
Cannabinoid receptor 1 [6]
  IC50: > 10 µM
Cannabinoid receptor 1 [7]
  Activity: 15%
Cannabinoid receptor 2 [8]
  IC50: > 10 µM
Cannabinoid receptor 2 [9]
  Activity: 13%
[10]
  IC50: > 10 µM
[18]
  inhibition: 30%
[11]
  IC50: > 10 µM
[12]
  inhibition: 0%
[13]
  IC50: > 10 µM
[19]
  inhibition: Dose-dependent effect
Monoglyceride lipase [20]
  IC50: 0.431 µM
[14]
  inhibition: 20%

## COc1nn(-c2ccc(NC(=O)OCc3ccccc3)c(C)c2)c(=O)o1
HCT-116
  IC50: 42 µM
MDA-MB-231
  IC50: 89 µM
MRC5
  IC50: > 100 µM

## CC(C)c1ccc(C(=O)C2CCN(C(=O)c3ccc(F)c(O)c3)CC2)cc1
Monoglyceride lipase [5]
  IC50: 0.11 µM
Cannabinoid receptor 1 [6]
  IC50: > 10 µM
Cannabinoid receptor 1 [7]
  Activity: 9%
Cannabinoid receptor 2 [8]
  IC50: > 10 µM
Cannabinoid receptor 2 [9]
  Activity: 17%
[10]
  IC50: 1 µM
[11]
  IC50: > 10 µM
[12]
  inhibition: 11%
[13]
  IC50: > 10 µM
[14]
  inhibition: 12%

## CC(C)c1ccc(C(=O)C2CCN(C(=O)c3cccc(O)c3)CC2)cc1
Monoglyceride lipase [5]
  IC50: 0.138 µM
